Data as given in patent publication US20240207308A1, “METHOD FOR CULTURING DENDRITIC CELLS” (NANOFAENTECH CO., LTD., priority 2021, published 2024).

Key:
Assay type in all cases: cell-based, mouse
spleen dendritic cells [1] = experiment: Fluorescence staining of CD86 in spleen dendritic cells, confocal microscope; settings: 24 hours
Description: In FIG. 11, culturing spleen dendritic cells (2×10^5/mL) and the prepared peptides were added at a concentration of 200 μg/mL, respectively, and after 6 hours, the expression level of CD86 using a PE-conjugated anti-CD86 antibody (eBioscience) was measured through a confocal microscope after fluorescence staining. After culturing spleen primary dendritic cells for a certain period of time, intracellular CD86, F-actin and nuclear staining was implemented. Expression of actin was stained with FITC-conjugated phalloidin (eBioscience), and nuclear staining was conducted with Hoechst 33342 (Sigma-Aldrich). For this purpose, cells cultured in a 48-well plate were placed in a 4% paraformaldehyde fixing solution, and then fixed at room temperature for 20 minutes.
Then, after washing twice with phosphate buffered saline solution, it was permeabilized with 0.1% Triton X-100 (Sigma-Aldrich) solution at room temperature for 5 minutes and washed twice with phosphate buffered saline solution. In order to remove non-specific staining, after reacting with 0.2% bovine serum albumin (Sigma-Aldrich) solution at room temperature for 20 minutes, it was washed twice with phosphate buffered saline solution. After that, the anti-CD86 antibody and phalloidine were diluted in 0.2% bovine serum albumin solution at a ratio of 1:40 and reacted for 40 minutes, washed 3 times with Tris buffer, placed on a slide glass, followed by counter-staining with Hoechst 33342 solution for nuclear staining of cells. After sealing with a cover glass, the cells were observed using a confocal laser microscope (K1 nanoscope).
In FIG. 26, spleen dendritic cells (2×10^5/mL) were dispensed in a 48-well plate, and linker peptides were each added at a concentration of 400 μg/mL, followed by culturing for 24 hours. Activation of spleen dendritic cells was induced by adding 1 μg/mL of LPS to the culture medium. The cultured cells were placed in a 4% paraformaldehyde fixing solution and fixed at room temperature for 20 minutes. After fluorescence staining using PE-conjugated anti-CD86 antibody (eBioscience), it was measured with a confocal microscope (K1 Nanoscope, Korea). Intracellular actin expression was stained with FITC-conjugated phalloidin (eBioscience), and nuclear staining was conducted with Hoechst 33342 (Sigma-Aldrich). CD86 antibody and phalloidin were diluted 1:40 in 0.2% bovine serum albumin solution and used.

[2] = test system: bone marrow-derived dendritic cells; experiment: CD86 expression of LPS-stimulated bone marrow-derived dendritic cells, flow cytometry; settings: 24 hours, LPS 1 μg/mL
Description: Compared to spleen dendritic cells, when bone marrow-derived DCs (BMDCs) were stimulated with LPS, effects of the peptide combination and the addition of fibronectin were measured.
(§1) Mouse bone marrow-derived dendritic cells were obtained by differentiation from mouse bone marrow precursor cells. The femur and tibia of female C57BL/6 mouse were removed, and bone marrow was isolated using 10 mL of EDTA:BSS (Balanced Salt Solution) buffer containing 2% FBS. Red blood cells were removed with erythrocyte lysis buffer (Sigma-Aldrich), washed with EDTA:BSS buffer, followed by filtering cells using a 70 μm cell strainer (Falcon). Cells at 3×10^6/mL were dispensed in a 6-well plate, and interleukin-4 (20 ng/ml) (JW Creagene, Korea) and GM-CSF (20 ng/ml) (JW Creagene) were added and cultured for 7 days to induce differentiation. Differentiated dendritic cells were reacted with microbeads bound with CD11c antibody (eBioscience), was separated using CD11c Microbeads Ultrapure (MACS, Milteni Biotec), and then cultured.
In FIG. 17, while culturing 2×10^5/mL of bone marrow-derived dendritic cells for 24 hours, the peptides of P1, P2 and P3 were each added at a concentration of 200 μg/mL or fibronectin was added at a concentration of 200 μg/mL. […]

[3] = test system: bone marrow-derived dendritic cells; experiment: ELISA of TNF-α and IL-12p40 from LPS-stimulated bone marrow-derived dendritic cells; settings: BMDC, 24 hours, LPS 1 μg/mL
Description: as §1
In FIG. 19, when fibronectin was administered by concentration while culturing bone marrow-derived dendritic cells for 24 hours, it could be seen that the secretion of TNF-α and IL-12p40 by LPS (1 μg/mL) was inhibited from a concentration of 100 μg/mL. * indicates statistical significance as P<0.05 or less compared to 0 μg/mL concentration.

[4] = test system: spleen T cells from Balb/c mice; experiment: Mixed lymphocyte reaction: proliferation of CFSE-stained allogeneic T cells co-cultured with spleen dendritic cells; settings: dendritic cells cultured with the substance and activated with LPS or poly (I:C), co-culture 1:20, 4 days
Description: (§2) Since the main role of activated dendritic cells is to induce antigen-specific T-cell activation and proliferation according to the stimulatory properties, it was investigated whether self-activated dendrite cells after culturing and dendritic cells activated with LPS after culturing with addition of peptides can induce T cell proliferation by mixed lymphocyte reaction (MLR) test. The spleen dendritic cells isolated from C57B/L6 mice were self-activated for 24 hours, otherwise, when cultured with addition of peptides or fibronectin, the cells were treated with LPS and activated. Spleen T cells from Balb/c mice were isolated using a CD4^+/CD8^+ T cell isolation kit (Miltenyi Biotec, Bergisch-Gladbach, Germany) and MACS column (Miltenyi Biotec), followed by 10 μM CFSE staining (Molecular Probes; Thermo Fisher Scientific Inc., USA). The activated dendritic cells and CFSE-stained T cells were co-cultured at a ratio of 1:20 for 4 days, and the T cell proliferation level was measured as a percentage of cells with decreased CFSE. […] In FIG. 22, the amount of cytokines secreted after co-culture of spleen dendritic cells and T cells for 4 days was measured by ELISA method. […]

[5] = test system: spleen dendritic cells and T cells; experiment: ELISA of cytokines after 4 days co-culture of spleen dendritic cells and allogeneic T cells; settings: dendritic cells activated with LPS and poly (I:C), co-culture 4 days
Description: as §2

spleen dendritic cells [6] = experiment: Viability of spleen dendritic cells by 7-AAD staining; settings: 6 hours of culture
Description: Dendritic cells are characterized by rapid cell death during culture while self-activation occurs. In addition to the inhibition of self-activation, it was measured whether the viability of dendritic cells is changed. Cell viability was determined by staining of culturing cells with 7-AAD and measuring the number of cells not stained with the above fluorescent substance.

Substance: fibronectin
- CD86-expressing cells (spleen dendritic cells [1]; with 1 μg/mL LPS): almost not measured
- CD86-expressing cells (spleen dendritic cells [1]; without LPS, linker peptides 400 μg/mL): almost not observed
- CD86 expression by LPS ([2]; BMDC 2×10^5/mL, 200 μg/mL): did not occur
- concentration from which the increase in CD86 expression by LPS was inhibited ([2]; BMDC): ≥ 50 µg/mL
- concentration from which the secretion of TNF-α and IL-12p40 by LPS was inhibited [3]: ≥ 100 µg/mL
- T cell proliferation (cells with decreased CFSE) [4]: not inducing T cell proliferation
- secretion of IFN-γ, IL-6, TNF-α and IL-5 [5]: extremely low
- number of 7-AAD-negative surviving cells (spleen dendritic cells [6]): significantly increased
